Experimental findings from patent publication US11866450B2, “Modulators of Cystic Fibrosis Transmembrane Conductance regulator, pharmaceutical compositions, methods of treatment, and process for making the modulators” (priority 2018, dated 2024) are described below.

Usually EC50 stands for the concentration needed to bring the measured effect to its halfway point.

The target in this assay is CFTR-mediated chloride transport (Homo sapiens, UniProt P13569). It counts as cell-based. Conditions: enteroid cells incubated with test compound 18-24 hours, acute 10 μM forskolin and 300 nM Compound III; for Max. Activity: % of chloride transport with 3 μM Compound A, 3 μM Compound II and 300 nM acute Compound III triple combination control. The method, boiled down:
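Membrane-potential fluorescence AUC over 15 min quantified CFTR chloride transport after acute forskolin (10 μM), IBMX (100 μM) and Compound III (300 nM) in chloride-free buffer. Human enteroid cells were pretreated with compound for 18–24 h; % Activity is relative to 3 μM Compound A + 3 μM Compound II + 300 nM Compound III.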

Some results are limits rather than exact numbers.

Chain of CFTR-mediated chloride transport (P13569 whole entry, looked up): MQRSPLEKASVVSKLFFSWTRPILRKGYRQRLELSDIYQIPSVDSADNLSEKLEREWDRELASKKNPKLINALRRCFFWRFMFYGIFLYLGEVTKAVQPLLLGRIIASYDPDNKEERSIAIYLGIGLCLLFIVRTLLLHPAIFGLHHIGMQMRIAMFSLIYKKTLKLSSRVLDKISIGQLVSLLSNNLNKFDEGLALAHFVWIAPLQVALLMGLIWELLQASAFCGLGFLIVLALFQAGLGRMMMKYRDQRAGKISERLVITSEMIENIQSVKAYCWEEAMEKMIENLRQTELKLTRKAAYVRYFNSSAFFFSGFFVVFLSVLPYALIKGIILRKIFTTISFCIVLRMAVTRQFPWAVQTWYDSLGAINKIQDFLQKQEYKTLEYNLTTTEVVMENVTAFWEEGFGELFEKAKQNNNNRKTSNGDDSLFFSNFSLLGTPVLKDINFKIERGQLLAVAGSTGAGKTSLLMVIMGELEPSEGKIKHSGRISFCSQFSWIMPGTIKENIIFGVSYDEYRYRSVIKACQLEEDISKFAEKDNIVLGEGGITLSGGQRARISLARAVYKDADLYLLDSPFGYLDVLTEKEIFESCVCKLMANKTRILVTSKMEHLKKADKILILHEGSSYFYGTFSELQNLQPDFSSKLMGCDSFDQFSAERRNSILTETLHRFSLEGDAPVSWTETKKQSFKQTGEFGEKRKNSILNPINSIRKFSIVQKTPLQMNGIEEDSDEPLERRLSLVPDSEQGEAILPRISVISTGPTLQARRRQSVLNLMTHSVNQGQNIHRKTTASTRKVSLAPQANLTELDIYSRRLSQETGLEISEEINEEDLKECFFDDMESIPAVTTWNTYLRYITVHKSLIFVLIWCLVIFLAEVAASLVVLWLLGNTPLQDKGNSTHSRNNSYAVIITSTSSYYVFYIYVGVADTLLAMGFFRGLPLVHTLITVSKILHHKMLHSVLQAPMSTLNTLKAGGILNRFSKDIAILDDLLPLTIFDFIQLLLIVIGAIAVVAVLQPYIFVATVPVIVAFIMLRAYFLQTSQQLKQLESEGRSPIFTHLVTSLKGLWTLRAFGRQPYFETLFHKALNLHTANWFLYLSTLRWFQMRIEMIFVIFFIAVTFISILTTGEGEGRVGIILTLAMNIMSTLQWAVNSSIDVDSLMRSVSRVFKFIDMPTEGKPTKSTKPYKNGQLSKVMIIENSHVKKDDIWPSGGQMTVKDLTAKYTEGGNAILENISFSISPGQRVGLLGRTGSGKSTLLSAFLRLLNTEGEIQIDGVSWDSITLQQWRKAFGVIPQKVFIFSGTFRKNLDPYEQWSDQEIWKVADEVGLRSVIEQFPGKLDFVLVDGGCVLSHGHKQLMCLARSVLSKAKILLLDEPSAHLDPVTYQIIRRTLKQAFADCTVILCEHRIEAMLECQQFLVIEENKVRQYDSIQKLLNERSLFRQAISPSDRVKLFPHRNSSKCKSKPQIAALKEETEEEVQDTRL

On to `CC(C)(C)CCC1CCN(c2ccc3c(n2)N2C[C@H](CCCn4ccc(n4)S(=O)(=O)NC3=O)CC2(C)C)C1=O` (stereo in doubt) [Compound 184, 4-[3-(3,3-dimethylbutyl)-2-oxopyrrolidin-1-yl]-20,20-dimethyl-10λ^6-thia-1,3,9,14,22-pentaazatetracyclo[16.2.1.111,14.02,7]docosa-2,4,6,11(22),12-pentaene-8,10,10-trione], for which the concentration for a half-maximal effect (EC50) was 1 to 3 µM and the “Max. Activity” value is on record as “+ (+ is <30%)”.

As for `CC1(C)C[C@@H]2CCCNc3cccc(n3)S(=O)(=O)NC(=O)c3ccc(N4CCN(C[C@H]5CC[C@@H](C(F)(F)F)CC5)C4=O)nc3N1C2` (single isomer, unassigned) [Compound 239], the EC50 was below 1 µM and the “Max. Activity” value is “+ (+ is <30%)”.

Consider `CC1(C)C[C@@H]2CCCNc3cccc(n3)S(=O)(=O)NC(=O)c3ccc(N4CCN(CC56CC7CC(CC(C7)C5)C6)C4=O)nc3N1C2` [Compound 229, (14S)-8-{3-[(adamantan-1-yl)methyl]-2-oxoimidazolidin-1-yl}-12,12-dimethyl-2λ^6-thia-3,9,11,18,23-pentaazatetracyclo[17.3.1.111,14.05,10]tetracosa-1(22),5,7,9,19(23),20-hexaene-2,2,4-trione], for which the concentration giving a half-maximal response (EC50) was below 1 µM and the “Max. Activity” value was “++ (++ is 30-60%)”.

As to `CN1CCC[C@H]2CN(c3nc(-n4ccc(OCCC(C5CC5)C5CC5)n4)ccc3C(=O)NS(=O)(=O)c3cccc1n3)C(C)(C)C2` (single isomer, unassigned) [Compound 204, 8-[3-(3,3-dicyclopropylpropoxy)-1H-pyrazol-1-yl]-12,12,18-trimethyl-2λ^6-thia-3,9,11,18,23-pentaazatetracyclo[17.3.1.111,14.05,10]tetracosa-1(22),5,7,9,19(23),20-hexaene-2,2,4-trione], the EC50 was above 3 µM and the “Max. Activity” value is on record as “+ (+ is <30%)”.

Consider `CC1(C)C[C@@H]2CN1c1nc(-n3ccc(OCCC(C4CC4)C4CC4)n3)ccc1C(=O)NS(=O)(=O)c1cccc(n1)NCCO2` (single isomer, unassigned) [Compound 162, 8-[3-(3,3-dicyclopropylpropoxy)-1H-pyrazol-1-yl]-12,12-dimethyl-15-oxa-2λ^6-thia-3,9,11,18,23-pentaazatetracyclo[17.3.1.111,14.05,10]tetracosa-1(23),5,7,9,19,21-hexaene-2,2,4-trione], for which the 50% effective concentration (EC50) fell in the range of 1 to 3 µM and the “Max. Activity” value is given as “++ (++ is 30-60%)”.

Consider `CC1(C)C[C@@H]2CCCNc3cccc(n3)S(=O)(=O)NC(=O)c3ccc(-n4ccc(OCCC5(C(F)(F)F)CC5)n4)nc3N1C2` [Compound 14, (14S)-12,12-dimethyl-8-(3-{2-[1-(trifluoromethyl)cyclopropyl]ethoxy}-1H-pyrazol-1-yl)-2λ^6-thia-3,9,11,18,23-pentaazatetracyclo[17.3.1.111,14.05,10]tetracosa-1(23),5,7,9,19,21-hexaene-2,2,4-trione], for which the 50% effective concentration (EC50) is below 1 µM and the “Max. Activity” value was “+++ (+++ is >60%)”.

`CC1(C)C[C@@H]2CN1c1nc(-n3ccc(OCCC(C4CC4)C4CC4)n3)ccc1C(=O)NS(=O)(=O)c1cccc(n1)NCCO2` (single isomer, unassigned) [Compound 163, 8-[3-(3,3-dicyclopropylpropoxy)-1H-pyrazol-1-yl]-12,12-dimethyl-15-oxa-2λ^6-thia-3,9,11,18,23-pentaazatetracyclo[17.3.1.111,14.05,10]tetracosa-1(23),5,7,9,19,21-hexaene-2,2,4-trione]: the half-maximal effective concentration (EC50) was below 1 µM and the “Max. Activity” value is “++ (++ is 30-60%)”.

`Cc1c2cnn1CCCC1CN(c3nc(-n4ccc(OCC(C)(C)C(F)(F)F)n4)ccc3C(=O)NS2(=O)=O)C(C)(C)C1` (single isomer, unassigned) [Compound 288, 20,20,22-trimethyl-4-[3-(3,3,3-trifluoro-2,2-dimethylpropoxy)-1H-pyrazol-1-yl]-10λ^6-thia-1,3,9,13,14-pentaazatetracyclo[16.2.1.111,14.02,7]docosa-2,4,6,11(22),12-pentaene-8,10,10-trione]: the EC50 is 1 to 3 µM and the “Max. Activity” value is “+ (+ is <30%)”.

With `CC(C)(C)CC[C@H]1CCN(c2ccc3c(n2)N2C[C@@H](CCCNc4cccc(n4)S(=O)(=O)NC3=O)CC2(C)C)C1=O` (single isomer, unassigned) [Compound 126], the EC50 was below 1 µM and the “Max. Activity” value was “++ (++ is 30-60%)”.

On to `CC1(C)CC[C@H]2CCCNc3cccc(n3)S(=O)(=O)NC(=O)c3ccc(-n4ccc(OCCC(C5CC5)C5CC5)n4)nc3N21` (single isomer, unassigned) [Compound 136, 8-[3-(3,3-dicyclopropylpropoxy)-1H-pyrazol-1-yl]-12,12-dimethyl-2λ^6-thia-3,9,11,19,24-pentaazatetracyclo[18.3.1.05,10.011,15]tetracosa-1(23),5(10),6,8,20(24),21-hexaene-2,2,4-trione], for which the EC50 is below 1 µM and the “Max. Activity” value was “+++ (+++ is >60%)”.

On to `CC1(C)C[C@H]2CCCn3ccc(n3)S(=O)(=O)NC(=O)c3ccc(-n4ccc(OCCC5C(C)(C)C5(C)C)n4)nc3N1C2` (single isomer, unassigned) [Compound 206, 20,20-dimethyl-4-{3-[2-(2,2,3,3-tetramethylcyclopropyl)ethoxy]-1H-pyrazol-1-yl}-10λ^6-thia-1,3,9,14,22-pentaazatetracyclo[16.2.1.111,14.02,7]docosa-2(7),3,5,11(22),12-pentaene-8,10,10-trione], for which the concentration giving a half-maximal response (EC50) was below 1 µM and the “Max. Activity” value is “+ (+ is <30%)”.

Consider `CC1(C)C[C@@H]2CCCNc3cccc(n3)S(=O)(=O)NC(=O)c3ccc(-n4ccc(OCC[C@@H](O)C5(C(F)(F)F)CC5)n4)nc3N1C2` (single isomer, unassigned) [Compound 296], for which the EC50 is below 1 µM and the “Max. Activity” value was “+++ (+++ is >60%)”.

For `CC1(C)CC[C@H]2CCCCNc3cccc(n3)S(=O)(=O)NC(=O)c3ccc(-n4ccc(OCCC5(C(F)(F)F)CC5)n4)nc3N21` (single isomer, unassigned) [Compound 47, 12,12-dimethyl-8-(3-{2-[1-(trifluoromethyl)cyclopropyl]ethoxy}-1H-pyrazol-1-yl)-2λ^6-thia-3,9,11,20,25-pentaazatetracyclo[19.3.1.05,10.011,15]pentacosa-1(24),5,7,9,21(25),22-hexaene-2,2,4-trione], the EC50 was below 1 µM and the “Max. Activity” value is recorded as “+++ (+++ is >60%)”.

As for `CC1(C)CC[C@@H]2CCCNc3cccc(n3)S(=O)(=O)NC(=O)c3ccc(-n4ccc(OCCC5(C(F)(F)F)CC5)n4)nc3N21` [Compound 33, (15S)-12,12-Dimethyl-8-(3-{2-[1-(trifluoromethyl)cyclopropyl]ethoxy}-1H-pyrazol-1-yl)-2λ^6-thia-3,9,11,19,24-pentaazatetracyclo[18.3.1.05,10.011,15]tetracosa-1(23),5,7,9,20(24),21-hexaene-2,2,4-trione], the EC50 is above 3 µM and the “Max. Activity” value is on record as “+ (+ is <30%)”.

Consider `CC1(C)C[C@@H]2CN1c1nc(-n3ccc(OCCC4(C(F)(F)F)CC4)n3)ccc1C(=O)NS(=O)(=O)c1cccc(n1)NCCO2` (single isomer, unassigned) [Compound 75, 12,12-dimethyl-8-(3-{2-[1-(trifluoromethyl)cyclopropyl]ethoxy}-1H-pyrazol-1-yl)-15-oxa-2λ^6-thia-3,9,11,18,23-pentaazatetracyclo[17.3.1.111,14.05,10]tetracosa-1(22),5(10),6,8,19(23),20-hexaene-2,2,4-trione], for which the EC50 is below 1 µM and the “Max. Activity” value is listed as “+++ (+++ is >60%)”.

With `CC(C)(C)CCO[C@H]1CCN(c2ccc3c(n2)N2C[C@@H](CCCNc4cccc(n4)S(=O)(=O)NC3=O)CC2(C)C)C1=O` (single isomer, unassigned) [Compound 170], the EC50 was below 1 µM and the “Max. Activity” value was “++ (++ is 30-60%)”.

Regarding `CC1(C)C[C@@H]2CCCNc3cccc(n3)S(=O)(=O)NC(=O)c3ccc(-n4ccc(OCC(O)C5C6(CC6)C56CC6)n4)nc3N1C2` (stereo partly drawn) [Compound 257, (14S)-8-[3-(2-{dispiro[2.0.2.1]heptan-7-yl}-2-hydroxyethoxy)-1H-pyrazol-1-yl]-12,12-dimethyl-2λ^6-thia-3,9,11,18,23-pentaazatetracyclo[17.3.1.111,14.05,10]tetracosa-1(22),5,7,9,19(23),20-hexaene-2,2,4-trione], the half-maximal effective concentration (EC50) is below 1 µM and the “Max. Activity” value is recorded as “+++ (+++ is >60%)”.

On to `CC1(C)C[C@H]2CCCn3ccc(n3)S(=O)(=O)NC(=O)c3ccc(-n4ccc(OCCCC5(C(F)(F)F)CC5)n4)nc3N1C2` (single isomer, unassigned) [Compound 165, 20,20-dimethyl-4-(3-{3-[1-(trifluoromethyl)cyclopropyl]propoxy}-1H-pyrazol-1-yl)-10λ^6-thia-1,3,9,14,22-pentaazatetracyclo[16.2.1.111,14.02,7]docosa-2(7),3,5,11(22),12-pentaene-8,10,10-trione], for which the half-maximal effective concentration (EC50) was above 3 µM and the “Max. Activity” value is on record as “+ (+ is <30%)”.

Turning to `CC1(C)CC[C@H]2CNc3cccc(n3)S(=O)(=O)NC(=O)c3ccc(-n4ccc(OCCC5(C(F)(F)F)CC5)n4)nc3N21` (single isomer, unassigned) [Compound 51, 7,7-dimethyl-11-(3-{2-[1-(trifluoromethyl)cyclopropyl]ethoxy}-1H-pyrazol-1-yl)-17λ^6-thia-2,8,10,16,22-pentaazatetracyclo[16.3.1.04,8.09,14]docosa-1(22),9,11,13,18,20-hexaene-15,17,17-trione], the concentration for a half-maximal effect (EC50) was above 3 µM and the “Max. Activity” value was “+ (+ is <30%)”.
